Test results from patent US20060211002A1, “Antibiotic susceptibility and virulence factor detection in Pseudomonas aeruginosa” (priority 2005, published 2006).
Where two headings read alike, the source gives them in different places.

Experiments:
[1] = test system: 60 clinical P. aeruginosa isolates; experiment: Antibiotic susceptibility testing, NEG MIC Type 30 panel on MicroScan WalkAway-96 SI, MICs interpreted according to NCCLS guidelines; format: cell-based, Pseudomonas aeruginosa; settings: for MIC: Pseudomonas aeruginosa, read-out: 60 MIC
Source text: The wild-type reference strain P. aeruginosa PAO1 was obtained from the ATCC (AT47085). The other P. aeruginosa strains were collected from patients at the Robert Bosch Hospital in Stuttgart, Germany. They were recovered from respiratory samples (n=51), swabs (n=5), urine (n=2) and faeces (n=2). All isolates were identified with the API 20NE system (bioMerieux, Marcy l'Etoile, France) and the NEG Breakpoint Combo Type 30 panel on the MicroScan WalkAway®-96 SI system (Dade Behring, Liederbach, Germany). All bacterial strains were either routinely cultured at 37° C. on Mueller-Hinton (MH) agar or grown in Luria Bertani broth (LB).
(§1) The antibiotic susceptibility was determined with the NEG MIC Type 30 panel on the MicroScan WalkAway®-96 SI system. The MICs were interpreted according to the NCCLS guidelines.
The test collective of P. aeruginosa isolates was recovered from three intensive care units (ICU) or other hospital wards as far as an unusual multidrug resistance was observed. […] 4.

[2] = test system: 60 clinical P. aeruginosa isolates; set-up: species or system Pseudomonas aeruginosa; settings: predicted from mutations and resistance genes found by array in 60 isolates
Protocol: The 60 P. aeruginosa isolates were tested with the array applying the same hybridization conditions. Tab.
In order to compare genotype and phenotype based resistance profiles, we calculated a cumulative resistance rate against different groups of antibiotics based on the array data (Tab. 6).

[3] = test system: 3 consecutive Pseudomonas aeruginosa isolates from the same patient; experiment: Phenotypic susceptibility profile of 3 consecutive isolates from the same patient; format: cell-based; settings: S/R phenotype
Protocol: as §1

[4] = Table 6, MIC tied to the resistant isolates, NCCLS interpretation
[5] = Table 3, P. aeruginosa test collective
[6] = Table 6, phenotypic resistance rate

Molecule | MIC [1, 4] [µg/mL] | % of resistant isolates out of 60 [1, 5] [%] | Number of resistant isolates out of 60 [1, 5] | Number of resistant isolates out of 60 ([1]; Table 6, phenotypic resistance) | % of resistant isolates out of 60 [1, 6] [%] | Cumulative resistance predicttion deduced from array [2] [%] | resistance rate ([1]; test collective of isolates) [%] | MIC [1] [µg/mL] | 60 MIC [1, 4] [µg/mL] | susceptibility rate ([1]; test collective of isolates) | Susceptibility profile, Isolate 2 ([3]; collected one week after the first isolate) | Susceptibility profile, Isolate 1 ([3]; first isolate) | Susceptibility profile, Isolate 3 ([3]; last of three isolates collected within three weeks)
CCN1CCN(C(=O)N[C@@H](C(=O)N[C@@H]2C(=O)N3[C@@H]2SC(C)(C)[C@@H]3C(=O)O)c2ccccc2)C(=O)C1=O [Piperacillin, piperacillin] | > 64 | 35 | 21 | 21 | 35 | 38 |  |  |  |  |  |  | 
colistin |  | 0 | 0 | 0 | 0 | 0 | 0 |  |  |  |  |  | 
NCC[C@H](O)C(=O)N[C@@H]1C[C@H](N)[C@@H](O[C@H]2O[C@H](CN)[C@@H](O)[C@H](O)[C@H]2O)[C@H](O)[C@H]1O[C@H]1O[C@H](CO)[C@@H](O)[C@H](N)[C@H]1O [Amikacin, amikacin] |  | 17 | 10 | 10 | 17 |  |  | > 32 |  |  |  |  | 
CC(C)(O/N=C(\C(=O)N[C@@H]1C(=O)N2C(C(=O)[O-])=C(C[n+]3ccccc3)CS[C@H]12)c1csc(N)n1)C(=O)O [Ceftazidim, ceftazidime] |  | 33 | 20 | 20 | 33 |  |  |  | >16 |  |  |  | 
C[C@@H](O)[C@H]1C(=O)N2C(C(=O)O)=C(SCCN=CN)C[C@H]12 [Imipenem, imipenem] |  | 45 | 27 | 27 | 45 |  |  | > 8 |  | less than 55% |  |  | 
gentamicin |  | 37 | 22 | 22 | 37 | 45 |  |  | >8 |  |  |  | 
NC[C@H]1O[C@H](O[C@H]2[C@H](O)[C@@H](O[C@H]3O[C@H](CO)[C@@H](O)[C@H](N)[C@H]3O)[C@H](N)C[C@@H]2N)[C@H](N)C[C@@H]1O [Tobramycin, tobramycin] |  | 10 | 6 | 6 | 10 |  |  | > 8 |  |  | susceptible | susceptible | resistance
C[C@H]1COc2c(N3CCN(C)CC3)c(F)cc3c(=O)c(C(=O)O)cn1c23 [Levofloxacin, levofloxacin] |  | 43 | 26 | 26 | 43 |  |  | > 4 |  |  |  |  | 
